{
  "source": "patent US7008924B1",
  "about": "“VGF fusion polypeptides” (Amgen, Inc., priority 1999, dated 2006)",
  "test_system": "VGF knockout mice",
  "assay": "Biological activity of VGF polypeptide in knockout mice (body weight)",
  "format": "in vivo",
  "details": "VGF gene knockout mice; intraperitoneal injection of 2 mg twice daily for five days; three of the four treated mice",
  "description": "The biological activity of VGF polypeptides in knockout mice was analyzed using VGF polypeptides synthesized by the Amgen Boulder Peptide Technology group using standard peptide synthesis protocols. Following peptide synthesis, VGF polypeptides from different batches were pooled and lyophilized. The peptide content for each VGF polypeptide was determined by hydrolysis with HCl.\nVGF gene knockout mice were obtained from Steve Salton of Mt. Sinai School of Medicine, New York, N.Y. Prior to administration of VGF polypeptide, knockout mice were housed under LD 12:12 conditions (i.e., 12 hours of light and 12 hours of dark). Twenty-four hours before VGF polypeptide injection, knockout mice were individually caged and moved to a temporary housing room where the mice were kept for the remainder of the experiment under LD 12:12 conditions.\nVGF polypeptide was administered to knockout mice twice daily (at 9:00 a.m. and 6:00 p.m.) by intraperitoneal injection of 2 mg of VGF-1a (SEQ ID NO: 2; Table I). Prior to injection, VGF-1a polypeptide was diluted to 16% in aCSF Solution Buffer (126.6 mM NaCl, 2.6 mM KCl, 2.0 mM MgCl2 and 1.4 mM CaCl2, 10 mM NaPO4, pH 7.4). Knockout mice were administered VGF-1a polypeptide for five days and the body weight of each mouse was measured daily. The body weight of treated mice was measured daily for three days following the withdrawal of VGF-1a polypeptide.",
  "data": [
    {"substance": "VGF-1a: VGF polypeptide, amino acid sequence AQEEADAEE (listed as Rattus norvegicus)", "values": [
      {"measurement": "gain in body weight", "value": "10–15%"}
    ]}
  ]
}
